The source of these data is patent US8822469B2, “Pyrrolo[2,3-B]pyrazines useful as inhibitors of ATR kinase” (Vertex Pharmaceuticals Incorporated, priority 2011, dated 2014).

The target of this assay is T1, full-length ATR (Homo sapiens, UniProt Q13535).
T1 construct: Assays were carried out at 25° C. in the presence of 5 nM full-length ATR
The experiment in a line: ATR Inhibition Assay (radioactive-phosphate incorporation). In kind it is biochemical. The conditions noted are these: Ki(app); 5 nM full-length ATR, 10 μM [γ-33P]ATP, 800 μM target peptide, 25° C. As to the method: Compounds were screened for their ability to inhibit ATR kinase using a radioactive-phosphate incorporation assay. Assays were carried out in a mixture of 50 mM Tris/HCl (pH 7.5), 10 mM MgCl2 and 1 mM DTT. Final substrate concentrations were 10 μM [γ-33P]ATP (3mCi 33P ATP/mmol ATP, Perkin Elmer) and 800 μM target peptide (ASELPASQPQPFSAKKK).
Assays were carried out at 25° C. in the presence of 5 nM full-length ATR. An assay stock buffer solution was prepared containing all of the reagents listed above, with the exception of ATP and the test compound of interest. 13.5 μL of the stock solution was placed in a 96 well plate followed by addition of 2 μL of DMSO stock containing serial dilutions of the test compound (typically starting from a final concentration of 15 μM with 3-fold serial dilutions) in duplicate (final DMSO concentration 7%). The plate was pre-incubated for 10 minutes at 25° C. and the reaction initiated by addition of 15 μL [γ-33P]ATP (final concentration 10 μM).
The reaction was stopped after […] by the addition of 30 μL 0.1M phosphoric acid containing 2 mM ATP. A multiscreen phosphocellulose filter 96-well plate (Millipore, Cat no. MAPHN0B50) was pretreated with 100 μL 0.2M phosphoric acid prior to the addition of 45 μL of the stopped assay mixture. The plate was washed with 5×200 μL 0.2M phosphoric acid. After drying, 100 μL Optiphase ‘SuperMix’ liquid scintillation cocktail (Perkin Elmer) was added to the well prior to scintillation counting (1450 Microbeta Liquid Scintillation Counter, Wallac).
After removing mean background values for all of the data points, Ki(app) data were calculated from non-linear regression analysis of the initial rate data using the Prism software package (GraphPad Prism version 3.0cx for Macintosh, GraphPad Software, San Diego Calif., USA).

The structures appear in SMILES notation.

T1 sequence (Q13535 whole entry): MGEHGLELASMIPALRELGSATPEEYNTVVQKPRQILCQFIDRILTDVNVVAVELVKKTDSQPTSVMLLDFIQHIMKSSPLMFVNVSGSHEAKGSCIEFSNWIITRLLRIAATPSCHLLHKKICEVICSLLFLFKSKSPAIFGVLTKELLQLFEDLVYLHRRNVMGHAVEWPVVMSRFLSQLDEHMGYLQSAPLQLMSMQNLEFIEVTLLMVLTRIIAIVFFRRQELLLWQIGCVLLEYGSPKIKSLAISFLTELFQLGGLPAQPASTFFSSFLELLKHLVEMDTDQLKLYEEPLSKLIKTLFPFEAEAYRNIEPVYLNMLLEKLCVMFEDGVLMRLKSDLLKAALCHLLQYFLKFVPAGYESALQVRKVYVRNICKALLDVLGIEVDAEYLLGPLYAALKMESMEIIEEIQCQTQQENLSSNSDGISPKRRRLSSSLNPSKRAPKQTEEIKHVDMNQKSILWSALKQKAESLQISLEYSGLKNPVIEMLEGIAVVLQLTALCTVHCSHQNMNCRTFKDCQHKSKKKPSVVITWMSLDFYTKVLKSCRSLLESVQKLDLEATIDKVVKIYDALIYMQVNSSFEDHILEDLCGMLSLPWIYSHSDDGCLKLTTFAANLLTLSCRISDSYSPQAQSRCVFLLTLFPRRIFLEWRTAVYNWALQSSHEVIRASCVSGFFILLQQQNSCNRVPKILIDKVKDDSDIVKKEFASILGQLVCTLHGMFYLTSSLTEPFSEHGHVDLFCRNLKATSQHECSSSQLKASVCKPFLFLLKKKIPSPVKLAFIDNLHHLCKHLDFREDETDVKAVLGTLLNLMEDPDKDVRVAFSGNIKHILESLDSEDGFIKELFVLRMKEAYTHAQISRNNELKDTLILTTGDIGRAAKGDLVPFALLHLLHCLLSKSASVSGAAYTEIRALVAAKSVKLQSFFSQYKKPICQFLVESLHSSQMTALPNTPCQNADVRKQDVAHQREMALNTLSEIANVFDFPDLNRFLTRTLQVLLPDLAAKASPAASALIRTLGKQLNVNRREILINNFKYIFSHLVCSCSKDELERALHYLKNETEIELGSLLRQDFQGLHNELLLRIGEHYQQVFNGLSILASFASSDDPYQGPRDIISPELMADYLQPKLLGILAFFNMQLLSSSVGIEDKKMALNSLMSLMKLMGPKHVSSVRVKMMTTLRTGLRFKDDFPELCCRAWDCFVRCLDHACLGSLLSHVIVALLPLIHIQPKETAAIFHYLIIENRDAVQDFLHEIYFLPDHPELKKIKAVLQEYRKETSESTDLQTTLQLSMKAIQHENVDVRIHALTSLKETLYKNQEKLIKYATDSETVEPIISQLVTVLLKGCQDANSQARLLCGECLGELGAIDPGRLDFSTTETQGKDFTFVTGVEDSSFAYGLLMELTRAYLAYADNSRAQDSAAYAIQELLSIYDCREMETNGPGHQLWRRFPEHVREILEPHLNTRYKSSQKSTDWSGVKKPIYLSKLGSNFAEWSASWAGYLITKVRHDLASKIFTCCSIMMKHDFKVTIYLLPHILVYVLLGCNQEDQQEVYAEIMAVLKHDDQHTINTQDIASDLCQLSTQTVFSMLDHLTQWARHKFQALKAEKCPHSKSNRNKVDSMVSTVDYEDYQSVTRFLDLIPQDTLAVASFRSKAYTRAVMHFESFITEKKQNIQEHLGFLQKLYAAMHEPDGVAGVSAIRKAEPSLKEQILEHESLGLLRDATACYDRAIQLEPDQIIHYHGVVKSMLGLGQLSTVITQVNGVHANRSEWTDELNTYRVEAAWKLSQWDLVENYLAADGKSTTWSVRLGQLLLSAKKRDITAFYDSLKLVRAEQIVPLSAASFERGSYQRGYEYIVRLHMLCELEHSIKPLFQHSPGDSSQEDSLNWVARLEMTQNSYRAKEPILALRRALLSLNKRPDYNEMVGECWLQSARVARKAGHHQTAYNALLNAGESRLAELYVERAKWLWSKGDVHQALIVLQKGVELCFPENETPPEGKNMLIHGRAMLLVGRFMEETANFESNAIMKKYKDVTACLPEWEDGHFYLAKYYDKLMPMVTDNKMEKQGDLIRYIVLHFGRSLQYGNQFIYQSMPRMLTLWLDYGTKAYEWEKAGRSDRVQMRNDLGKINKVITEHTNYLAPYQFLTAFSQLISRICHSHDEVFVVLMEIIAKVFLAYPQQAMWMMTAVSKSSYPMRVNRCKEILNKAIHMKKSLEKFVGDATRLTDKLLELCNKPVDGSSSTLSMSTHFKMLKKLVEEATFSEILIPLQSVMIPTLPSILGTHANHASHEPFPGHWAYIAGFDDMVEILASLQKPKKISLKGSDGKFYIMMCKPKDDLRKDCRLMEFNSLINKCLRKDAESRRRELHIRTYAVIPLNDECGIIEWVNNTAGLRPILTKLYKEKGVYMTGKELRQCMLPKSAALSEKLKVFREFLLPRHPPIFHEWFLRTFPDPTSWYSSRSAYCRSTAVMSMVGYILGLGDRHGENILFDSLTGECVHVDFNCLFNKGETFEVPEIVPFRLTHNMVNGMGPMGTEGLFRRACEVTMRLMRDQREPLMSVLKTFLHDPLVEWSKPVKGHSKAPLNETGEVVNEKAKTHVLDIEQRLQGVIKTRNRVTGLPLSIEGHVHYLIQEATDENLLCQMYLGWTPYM

On to `CC(C)S(=O)(=O)c1ccc(-c2cnc3[nH]cc(NC(=O)c4ccc(NC5CNC5)cc4)c3n2)cc1` [Compound I-30, 4-(azetidin-3-ylamino)-N-[2-(4-isopropylsulfonylphenyl)-5H-pyrrolo[2,3-b]pyrazin-7-yl]benzamide], for which the Ki was ≤ 10 nM.
Same read-out and setting: the result for `CC(C)S(=O)(=O)c1ccc(-c2cnc3[nH]cc(NC(=O)C4CCOC4)c3n2)cc1` (stereo not shown) [Compound I-36, N-[2-(4-isopropylsulfonylphenyl)-5H-pyrrolo[2,3-b]pyrazin-7-yl]tetrahydrofuran-3-carboxamide] reads 100 to 500 nM; that for `CC(C)S(=O)(=O)c1ccc(-c2cnc3[nH]cc(NC(=O)CC4CC4)c3n2)cc1` [Compound I-33, 2-cyclopropyl-N-[2-(4-isopropylsulfonylphenyl)-5H-pyrrolo[2,3-b]pyrazin-7-yl]acetamide], 10 to 100 nM; that for `CC(C)S(=O)(=O)c1ccc(-c2cnc3[nH]cc(NC(=O)c4ccc5c(c4)CNC5)c3n2)cc1` [Compound I-24, N-[2-(4-isopropylsulfonylphenyl)-5H-pyrrolo[2,3-b]pyrazin-7-yl]isoindoline-5-carboxamide], ≤ 10 nM.
As to `CC(C)S(=O)(=O)c1ccc(-c2cnc3[nH]cc(NC(=O)c4ccc(OCCN(C)C)cc4)c3n2)cc1` [Compound I-29, 4-(2-dimethylaminoethyloxy)-N-[2-(4-isopropylsulfonylphenyl)-5H-pyrrolo[2,3-b]pyrazin-7-yl]benzamide], the Ki is ≤ 10 nM.
The same measure, in the same setting: as for `CC(C)S(=O)(=O)c1ccc(-c2cnc3[nH]cc(NC(=O)c4ccc(N5CCC[C@H](N)C5)cc4)c3n2)cc1` [Compound I-42, 4-[(3S)-3-amino-1-piperidyl]-N-[2-(4-isopropylsulfonylphenyl)-5H-pyrrolo[2,3-b]pyrazin-7-yl]benzamide], the figure is 10 to 100 nM.
Same read-out and setting: as for `CC(C)S(=O)(=O)c1ccc(-c2cnc3[nH]cc(NC(=O)c4ccccc4)c3n2)cc1` [Compound I-1, N-(2-(4-(isopropylsulfonyl)phenyl)-5H-pyrrolo[2,3-b]pyrazin-7-yl)benzamide], the figure is ≤ 10 nM.
The same measure, in the same setting: the result for `CC(C)S(=O)(=O)c1ccc(-c2cnc3[nH]cc(NC(=O)c4cncs4)c3n2)cc1` [Compound I-34, N-[2-(4-isopropylsulfonylphenyl)-5H-pyrrolo[2,3-b]pyrazin-7-yl]thiazole-5-carboxamide] reads 10 to 100 nM; that for `CC(C)S(=O)(=O)c1ccc(-c2cnc3[nH]cc(NC(=O)c4ccc(N5CCC[C@@H](N)C5)cc4)c3n2)cc1` [Compound I-23, 4-[(3R)-3-amino-1-piperidyl]-N-[2-(4-isopropylsulfonylphenyl)-5H-pyrrolo[2,3-b]pyrazin-7-yl]benzamide], ≤ 10 nM.
In the case of `COc1ccccc1C(=O)Nc1c[nH]c2ncc(-c3ccc(S(=O)(=O)C(C)C)cc3)nc12` [Compound I-11, N-[2-(4-isopropylsulfonylphenyl)-5H-pyrrolo[2,3-b]pyrazin-7-yl]-2-methoxy-benzamide], the “ATR Inhibition Ki” value is reported as “none”.
With `CC(C)S(=O)(=O)c1ccc(-c2cnc3[nH]cc(NC(=O)Nc4ccccc4)c3n2)cc1` [Compound I-43, 1-[2-(4-isopropylsulfonylphenyl)-5H-pyrrolo[2,3-b]pyrazin-7-yl]-3-phenyl-urea], the Ki lay within 10 to 100 nM.
Same read-out and setting: the result for `Cc1ccsc1C(=O)Nc1c[nH]c2ncc(-c3ccc(S(=O)(=O)C(C)C)cc3)nc12` [Compound I-32, N-[2-(4-isopropylsulfonylphenyl)-5H-pyrrolo[2,3-b]pyrazin-7-yl]-3-methyl-thiophene-2-carboxamide] reads ≤ 10 nM; that for `CC(C)S(=O)(=O)c1ccc(-c2cnc3[nH]cc(NC(=O)Cc4ccccc4)c3n2)cc1` [Compound I-10, N-[2-(4-isopropylsulfonylphenyl)-5H-pyrrolo[2,3-b]pyrazin-7-yl]-2-phenyl-acetamide], 100 to 500 nM; that for `CC(C)S(=O)(=O)c1ccc(-c2cnc3[nH]cc(NC(=O)c4cccc(Cl)c4)c3n2)cc1` [Compound I-13], 10 to 100 nM.
In the case of `CC(C)S(=O)(=O)c1ccc(-c2cnc3[nH]cc(NC(=O)c4ccc(O)cc4)c3n2)cc1` [Compound I-18, 4-hydroxy-N-[2-(4-isopropylsulfonylphenyl)-5H-pyrrolo[2,3-b]pyrazin-7-yl]benzamide], the Ki is ≤ 10 nM.
Still for that read-out and setting: the result for `CC(C)S(=O)(=O)c1ccc(-c2cnc3[nH]cc(NC(=O)COc4ccccc4)c3n2)cc1` [Compound I-39, N-[2-(4-isopropylsulfonylphenyl)-5H-pyrrolo[2,3-b]pyrazin-7-yl]-2-phenoxy-acetamide] reads 100 to 500 nM.
Regarding `CC(C)S(=O)(=O)c1ccc(-c2cnc3[nH]cc(NC(=O)c4ccc5c(c4)CNCC5)c3n2)cc1` [Compound I-25, N-[2-(4-isopropylsulfonylphenyl)-5H-pyrrolo[2,3-b]pyrazin-7-yl]-1,2,3,4-tetrahydroisoquinoline-7-carboxamide], the Ki was ≤ 10 nM.
On the same count and under the same terms, as for `CC(C)S(=O)(=O)c1ccc(-c2cnc3[nH]cc(NS(=O)(=O)c4ccccc4)c3n2)cc1` [Compound I-19], the figure is 100 to 500 nM; as for `CC(C)S(=O)(=O)c1ccc(-c2cnc3[nH]cc(NC(=O)c4ccccn4)c3n2)cc1` [Compound I-40, N-[2-(4-isopropylsulfonylphenyl)-5H-pyrrolo[2,3-b]pyrazin-7-yl]pyridine-2-carboxamide], 10 to 100 nM; as for `CC(C)S(=O)(=O)c1ccc(-c2cnc3[nH]cc(NC(=O)c4ccncc4)c3n2)cc1` [Compound I-17, N-[2-(4-isopropylsulfonylphenyl)-5H-pyrrolo[2,3-b]pyrazin-7-yl]pyridine-4-carboxamide], 10 to 100 nM.
Still for that read-out and setting: the result for `CC(C)S(=O)(=O)c1ccc(-c2cnc3[nH]cc(NC(=O)c4ccccc4F)c3n2)cc1` [Compound I-15, 2-fluoro-N-[2-(4-isopropylsulfonylphenyl)-5H-pyrrolo[2,3-b]pyrazin-7-yl]benzamide] reads 10 to 100 nM; that for `CC(C)S(=O)(=O)c1ccc(-c2cnc3[nH]cc(NC(=O)c4cccc(C5CNCCN5)c4)c3n2)cc1` (stereo not shown) [Compound I-21, N-[2-(4-isopropylsulfonylphenyl)-5H-pyrrolo[2,3-b]pyrazin-7-yl]-3-piperazin-2-yl-benzamide], 10 to 100 nM.
The same measure, in the same setting: the result for `CC(C)S(=O)(=O)c1ccc(-c2cnc3[nH]cc(NC(=O)c4ccc(C5CCCN5)cc4)c3n2)cc1` (stereo not shown) [Compound I-28, N-[2-(4-isopropylsulfonylphenyl)-5H-pyrrolo[2,3-b]pyrazin-7-yl]-4-pyrrolidin-2-yl-benzamide] reads ≤ 10 nM; that for `CC(C)S(=O)(=O)c1ccc(-c2cnc3[nH]cc(NC(=O)c4cc5c(s4)CCNC5)c3n2)cc1` [Compound I-26, N-[2-(4-isopropylsulfonylphenyl)-5H-pyrrolo[2,3-b]pyrazin-7-yl]-4,5,6,7-tetrahydrothieno[3,2-c]pyridine-2-carboxamide], ≤ 10 nM.
With `CC(C)S(=O)(=O)c1ccc(-c2cnc3[nH]cc(NC(=O)c4ccc(N)cc4)c3n2)cc1` [Compound I-3, 4-amino-N-[2-(4-isopropylsulfonylphenyl)-5H-pyrrolo[2,3-b]pyrazin-7-yl]benzamide], the Ki fell in the range of 10 to 100 nM.
Still for that read-out and setting: the result for `CC(C)S(=O)(=O)c1ccc(-c2cnc3[nH]cc(NC(=O)Cc4nnn[nH]4)c3n2)cc1` [Compound I-38, N-[2-(4-isopropylsulfonylphenyl)-5H-pyrrolo[2,3-b]pyrazin-7-yl]-2-(1H-tetrazol-5-yl)acetamide] reads 10 to 100 nM; that for `CC(C)S(=O)(=O)c1ccc(-c2cnc3[nH]cc(NC(=O)c4ccc(N5CC[C@H](N)C5)cc4)c3n2)cc1` [Compound I-22, 4-[(3S)-3-aminopyrrolidin-1-yl]-N-[2-(4-isopropylsulfonylphenyl)-5H-pyrrolo[2,3-b]pyrazin-7-yl]benzamide], ≤ 10 nM.
Regarding `CC(C)S(=O)(=O)c1ccc(-c2cnc3[nH]cc(NC(=O)c4cccc(CN)c4)c3n2)cc1` [Compound I-12, 3-(aminomethyl)-N-[2-(4-isopropylsulfonylphenyl)-5H-pyrrolo[2,3-b]pyrazin-7-yl]benzamide], the Ki is 10 to 100 nM.
On the same count and under the same terms, as for `COc1cccc(C(=O)Nc2c[nH]c3ncc(-c4ccc(S(=O)(=O)C(C)C)cc4)nc23)n1` [Compound I-31, N-[2-(4-isopropylsulfonylphenyl)-5H-pyrrolo[2,3-b]pyrazin-7-yl]-6-methoxy-pyridine-2-carboxamide], the figure is 10 to 100 nM.
Same read-out and setting: as for `CC(C)S(=O)(=O)c1ccc(-c2cnc3[nH]cc(NC(=O)c4cc5c(s4)CNCC5)c3n2)cc1` [Compound I-27, N-[2-(4-isopropylsulfonylphenyl)-5H-pyrrolo[2,3-b]pyrazin-7-yl]-4,5,6,7-tetrahydrothieno[2,3-c]pyridine-2-carboxamide], the figure is ≤ 10 nM; as for `CC(CCO)S(=O)(=O)c1ccc(-c2cnc3[nH]cc(NC(=O)c4ccccc4)c3n2)cc1` (stereo not shown) [Compound I-8], ≤ 10 nM.
